In ChEMBL document CHEMBL1137482, “Carbonic anhydrase inhibitors: cloning, characterization, and inhibition studies of the cytosolic isozyme III with sulfonamides” (Bioorg Med Chem, 2007) one finds Ki data, which are given here for 22 compounds.

Structures are written as SMILES.

Chain of Carbonic anhydrase 3 (P07451 whole entry): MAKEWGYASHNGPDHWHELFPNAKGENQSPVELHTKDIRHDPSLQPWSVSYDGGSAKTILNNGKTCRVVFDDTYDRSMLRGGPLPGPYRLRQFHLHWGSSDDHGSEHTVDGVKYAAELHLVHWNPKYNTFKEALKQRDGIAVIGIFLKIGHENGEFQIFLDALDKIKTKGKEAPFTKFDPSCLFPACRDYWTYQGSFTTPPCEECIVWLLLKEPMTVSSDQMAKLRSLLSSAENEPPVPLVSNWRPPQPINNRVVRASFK

This assay addresses Carbonic anhydrase 3 (Homo sapiens, UniProt P07451).
Consider `Nc1nnc(S(N)(=O)=O)s1`, for which the affinity, expressed as Ki, was 148 µM.
As for `Nc1ccc(S(=O)(=O)NCc2ccc(S(N)(=O)=O)cc2)cc1`, the Ki turned out to be 114 µM.
To `Nc1ccc(S(=O)(=O)Nc2nnc(S(N)(=O)=O)s2)cc1` belongs 18.1 µM; to `Nc1nccc(Nc2ccc(S(N)(=O)=O)cc2)n1`, 2630 µM.
In turn, `Nc1ccccc1S(N)(=O)=O` gave a Ki of 887 µM.
Under `Cn1nc(S(N)(=O)=O)sc1=N` stands 198 µM; under `NS(=O)(=O)c1ccc(CCO)cc1`, 1190 µM; under `Nc1ccc(S(N)(=O)=O)cc1F`, 2070 µM.
For `NS(=O)(=O)c1ccc(CO)cc1`, the Ki was 4890 µM.
Consider `Nc1ccc(S(N)(=O)=O)cc1Cl`, for which the Ki turned out to be 710 µM.
Compound `Nc1ccc(S(=O)(=O)NCCc2ccc(S(N)(=O)=O)cc2)cc1` gave a Ki of 140 µM.
As for `NS(=O)(=O)c1ccc(S(=O)(=O)Nc2cccc3c(Cl)c[nH]c23)cc1`, the affinity, expressed as Ki, was 10.4 µM.
Take `CCNC1CN(CCCOC)S(=O)(=O)c2sc(S(N)(=O)=O)cc21` (single isomer, unassigned) [BRINZOLAMIDE]: the Ki turned out to be 110 µM.
The compound `NS(=O)(=O)c1ccc(C(=O)O)cc1` [CARZENIDE] came in with a Ki of 11.3 µM.
Turning to `Cc1ccc(-c2cc(C(F)(F)F)nn2-c2ccc(S(N)(=O)=O)cc2)cc1` [CELECOXIB], the affinity corresponds to a Ki of 154 µM.
For the compound `NS(=O)(=O)c1cc(Cl)c(Cl)c(S(N)(=O)=O)c1` [DICHLORPHENAMIDE], affinity was put at a Ki of 684 µM.
For `NCc1ccc(S(N)(=O)=O)cc1` [MAFENIDE], affinity was put at a Ki of 681 µM.
`Cc1ccc(S(N)(=O)=O)cc1` [P-TOLUENESULFONAMIDE] had a Ki of 7.9 µM.
`O=C1NS(=O)(=O)c2ccccc21` [SACCHARIN] showed a Ki of 1000 µM.
To `Nc1ccc(S(N)(=O)=O)cc1` [SULFANILAMIDE] belongs 988 µM; to `CCN1CCCC1CNC(=O)c1cc(S(N)(=O)=O)ccc1OC` (configuration not stated) [SULPIRIDE], 10.6 µM; to `CC1(C)O[C@@H]2[C@@H](CO[C@@]3(COS(N)(=O)=O)OC(C)(C)O[C@@H]23)O1` [TOPIRAMATE], 780 µM.

Broadly, the Ki is the equilibrium dissociation constant of an inhibitor or competing ligand from its target.
